Some test systems named below: DMS 273 small cell lung; LXFL 529 NSCLC; M19-MEL melanoma; SNB-78 CNS; XF 498 CNS; HOP-18 NSCLC; RXF-631 renal.
Common to all, as to experiment: NCI tumour cell line growth inhibition, 48 h

Several values for one entry are separate records, joined by “and”; a condition that tells them apart may be missing. Equal values may be shown once.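 48-hour exposure; five concentrations; linearly interpolated endpoints. The concentration for 50% growth inhibition is given as GI50. Definition used: TGI = concentration required for complete inhibition of growth.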 Where only a bound is given, the exact number is not on record here.

For the compound `CCCC(C)NC1=C(NC(C)=O)C(=O)c2ccccc2C1=O` (configuration not stated), the TGI with DMS 273 small cell lung, in the assay on LXFL 529 NSCLC, in the assay with M19-MEL melanoma, with SNB-78 CNS and in the assay on XF 498 CNS was above 100 µM each time.

On to `COc1cc(CNc2ccc(SC)cc2)cc(OC)c1OC`, for which the TGI was 28.1 µM and > 36.7 µM in the assay on DMS 273 small cell lung; above 100 µM in the assay on HOP-18 NSCLC; above 100 µM in the assay with LXFL 529 NSCLC; above 100 µM with SNB-78 CNS; 91.2 µM and 40 µM in the assay with XF 498 CNS. In addition, the GI50 with XF 498 CNS was 23.4 µM and 11.1 µM.

Turning to `NC1=NS(=O)(=O)Nc2nc(-c3ccc([N+](=O)[O-])o3)[nH]c21`, the TGI was determined as 38.7 µM in the assay on DMS 273 small cell lung, 30.3 µM in the assay on HOP-18 NSCLC, 25.7 µM in the assay on LXFL 529 NSCLC and 32.4 µM with M19-MEL melanoma.

As for `CC(=O)C1=C(C)NC2C=CC=CN12` (configuration not stated), the TGI in the assay with DMS 273 small cell lung, in the assay with HOP-18 NSCLC, in the assay on M19-MEL melanoma, in the assay with SNB-78 CNS and with XF 498 CNS was above 100 µM throughout.

For the compound `COc1ccc(O)cc1`, the TGI with LXFL 529 NSCLC, in the assay on M19-MEL melanoma, in the assay on SNB-78 CNS and in the assay on XF 498 CNS was above 100 µM throughout.

On to `O=C1Nc2c(ccc(Cl)c2I)C1=O`, for which the TGI is 37 µM in the assay on DMS 273 small cell lung, 27.5 µM in the assay with LXFL 529 NSCLC, 24.1 µM in the assay on M19-MEL melanoma and 29.9 µM in the assay on XF 498 CNS.

Turning to `NC1=NS(=O)(=O)Nc2nc(-c3ccc(Cl)cc3)c(-c3ccc(Cl)cc3)nc21`, the TGI with DMS 273 small cell lung, in the assay on HOP-18 NSCLC, with LXFL 529 NSCLC, with M19-MEL melanoma, with RXF-631 renal and in the assay on SNB-78 CNS was above 100 µM throughout. The TGI with XF 498 CNS was above 100 µM.

Regarding `CCCCCCCCCCCCCCCCCC(=O)O[C@H](COC(=O)CCCCCCCCCCC)COC(=O)CCCCCCCCCCCCCCC`, the TGI with DMS 273 small cell lung, in the assay with HOP-18 NSCLC, with LXFL 529 NSCLC, in the assay with M19-MEL melanoma and in the assay with RXF-631 renal was above 100 µM in each case.

As to `O=C(CSc1nnc(Cc2ccccc2)o1)Nc1ccc([N+](=O)[O-])cc1`, the TGI in the assay on DMS 273 small cell lung, in the assay on LXFL 529 NSCLC, in the assay with M19-MEL melanoma and with SNB-78 CNS was above 100 µM each time.

Regarding `O=C(Cc1ccccc1)NN1C(=O)C(Cl)C1c1ccc(O)cc1` (configuration not stated), the TGI in the assay on DMS 273 small cell lung, in the assay with HOP-18 NSCLC and in the assay with M19-MEL melanoma was above 100 µM in each case.

`CC(C)C(=O)/C=C/c1ccc(Br)cc1`: the TGI in the assay on DMS 273 small cell lung was 28.7 µM; in the assay with LXFL 529 NSCLC it was 33.8 µM; with M19-MEL melanoma it was 28.9 µM; with SNB-78 CNS, above 100 µM; in the assay on XF 498 CNS, 30.4 µM.

With `CC(=O)Nc1cc2c(s1)CCC1CC(=O)NN=C21` (configuration not stated), the TGI in the assay with DMS 273 small cell lung, in the assay on LXFL 529 NSCLC, with M19-MEL melanoma, in the assay with SNB-78 CNS and with XF 498 CNS was above 100 µM in each case.

As for `COC(=O)N/N=C(\C)C(CN1CCCCC1)C(C1=C(O)c2ccccc2OC1)c1ccccc1` (configuration not stated), the TGI in the assay on DMS 273 small cell lung, with HOP-18 NSCLC, in the assay with LXFL 529 NSCLC, in the assay on M19-MEL melanoma, with SNB-78 CNS and in the assay with XF 498 CNS was above 100 µM each time.

On to `O=C1OC2(OC2c2ccccc2)c2ccccc21` (configuration not stated), for which the TGI in the assay with DMS 273 small cell lung, in the assay with LXFL 529 NSCLC, with M19-MEL melanoma and in the assay on XF 498 CNS was above 100 µM in each case.

On to `O=C1c2ccccc2C(=O)N1Cc1ccccc1-c1c2nc(c(-c3ccccc3CN3C(=O)c4ccccc4C3=O)c3ccc([nH]3)c(-c3ccccc3CN3C(=O)c4ccccc4C3=O)c3nc(c(-c4ccccc4CN4C(=O)c5ccccc5C4=O)c4ccc1[nH]4)C=C3)C=C2`, for which the TGI in the assay on DMS 273 small cell lung, with HOP-18 NSCLC, in the assay with LXFL 529 NSCLC, with M19-MEL melanoma and with SNB-78 CNS was above 100 µM each time.

For the origin of these results see PubChem BioAssay (NCI).
